Measured values published in paper PMC11263391, “Molecular insights into degron recognition by CRL5^ASB7 ubiquitin ligase” (Nature Communications, 2024).
Where two headings read alike, the source gives them in different places. Residues, ends and D or L forms follow the SMILES beside them.

Biological target: T1, ASB7-Elongin B/C (Homo sapiens, UniProt Q9H672)
T1 construct: The human ASB7 (residues 11–318) was amplified via PCR; His8-SUMO (pET28-MKH8SUMO) (N, cleaved yes); made in house; host or cells: Escherichia coli BL21 (DE3)
Assay: ITC of degron peptides with wild-type ASB7-Elongin B/C
Assay type: binding
Conditions: for ASB7 binding ability of substituted peptide, in words: wild-type ASB7, compared with native LZTS1-degron; for -T∆S / ∆G / ∆H: wild-type ASB7-Elongin B/C; for ∆H: mean ± SD of three repeats
Experimental: The human ASB7 (residues 11-318) was amplified via PCR from a human cDNA library and seamlessly cloned into the pET28-MKH8SUMO vector (Addgene plasmid #79526). […] ITC assays were performed using a MicroCal PEAQ-ITC instrument (Malvern Panalytical) at 16 °C. […] All protein and peptide stocks were prepared in an ITC buffer (20 mM Tris-HCl pH 7.5, and 150 mM NaCl) and subsequently diluted to the desired concentrations (39-156 μM for ASB7 protein and 0.8-4 mM for the peptides, respectively). In each experiment, 1.5 μL of peptide was titrated into the ASB7 complex solution with 15 injections. The injections were spaced at 90 seconds with a reference power of 15 μcal/s. The ITC data were processed using MicroCal PEAQ-ITC Analysis software.

[1] = ITC, MicroCal PEAQ-ITC, 16 °C, 20 mM Tris-HCl pH 7.5, 150 mM NaCl, peptide (0.8–4 mM) titrated into wild-type ASB7-Elongin B/C (39–156 μM), 15 injections, mean ± SD of three independent repeats, read-out: KD
[2] = ITC, 16 °C, 20 mM Tris-HCl pH 7.5, 150 mM NaCl

T1 sequence (Q9H672 11-318): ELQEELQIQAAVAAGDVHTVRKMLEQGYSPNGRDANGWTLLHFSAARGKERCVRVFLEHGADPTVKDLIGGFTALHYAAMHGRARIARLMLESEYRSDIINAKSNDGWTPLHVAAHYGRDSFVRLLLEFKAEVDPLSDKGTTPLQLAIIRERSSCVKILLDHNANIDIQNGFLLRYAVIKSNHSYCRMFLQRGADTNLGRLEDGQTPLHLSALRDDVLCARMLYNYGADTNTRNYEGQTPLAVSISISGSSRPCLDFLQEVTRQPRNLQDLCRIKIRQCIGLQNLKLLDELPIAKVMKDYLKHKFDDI
T1 sequence (Q15370 1-104 partner limits assumed): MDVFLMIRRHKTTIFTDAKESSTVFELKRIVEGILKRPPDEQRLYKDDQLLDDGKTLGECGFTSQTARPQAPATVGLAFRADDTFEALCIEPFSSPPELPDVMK
T1 sequence (Q15369 17-112 partner limits assumed): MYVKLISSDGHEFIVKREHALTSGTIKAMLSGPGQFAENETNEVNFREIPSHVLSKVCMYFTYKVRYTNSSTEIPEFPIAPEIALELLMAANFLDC

| Kd [1] [µM] | ASB7 binding ability of substituted peptide, in words (ITC) | Molecule | also measured |
| --- | --- | --- | --- |
| > 30 |  | CSCC[C@H](NC(=O)[C@H](CC(C)C)NC(=O)[C@H](CO)NC(=O)[C@H](CCC(=O)O)NC(=O)[C@H](CC(C)C)NC(=O)[C@@H](N)CCC(=O)O)C(=O)N[C@@H](CCCCN)C(=O)N[C@@H](CCC(=O)O)C(=O)N[C@@H](CCC(N)=O)C(=O)O (H-ELESLMKEQ-OH; N-terminus and C-terminus assumed) |  |
| > 30 |  | CSCC[C@H](NC(=O)[C@H](CC(C)C)NC(=O)[C@H](CO)NC(=O)[C@H](CCC(=O)O)NC(=O)[C@H](CC(C)C)NC(=O)[C@@H](N)CCC(=O)O)C(=O)N[C@@H](CCCCN)C(=O)N[C@@H](CCC(=O)O)C(=O)N[C@@H](CCC(N)=O)C(=O)N[C@@H](CC(=O)O)C(=O)N[C@@H](CC(C)C)C(=O)N[C@@H](CC(C)C)C(=O)N[C@@H](CCC(=O)O)C(=O)O (H-ELESLMKEQDLLE-OH; N-terminus and C-terminus assumed) |  |
| 0.7 ± 0.31 |  | CSCC[C@H](NC(=O)[C@H](CC(C)C)NC(=O)[C@H](CO)NC(=O)[C@H](CCC(=O)O)NC(=O)[C@H](CC(C)C)NC(=O)[C@@H](N)CCC(=O)O)C(=O)N[C@@H](CCCCN)C(=O)N[C@@H](CCC(=O)O)C(=O)N[C@@H](CCC(N)=O)C(=O)N[C@@H](CC(=O)O)C(=O)N[C@@H](CC(C)C)C(=O)N[C@@H](CC(C)C)C(=O)N[C@@H](CCC(=O)O)C(=O)N[C@H](C(=O)N[C@@H](CCCCN)C(=O)N[C@@H](CC(C)C)C(=O)N[C@@H](CCCNC(=N)N)C(=O)N[C@@H](CO)C(=O)N[C@@H](Cc1ccc(O)cc1)C(=O)N[C@@H](CCC(=O)O)C(=O)N[C@@H](CCCNC(=N)N)C(=O)O)[C@@H](C)O (H-ELESLMKEQDLLETKLRSYER-OH) |  |
| > 30 | almost complete loss | CSCC[C@H](NC(=O)[C@H](CC(C)C)NC(=O)[C@H](CO)NC(=O)[C@H](CCC(=O)O)NC(=O)[C@H](CC(C)C)NC(=O)[C@H](CCC(=O)O)NC(=O)[C@H](CCC(N)=O)NC(=O)[C@@H](N)CCCNC(=N)N)C(=O)N[C@@H](CCCCN)C(=O)N[C@@H](CCCNC(=N)N)C(=O)N[C@@H](CCC(N)=O)C(=O)N[C@@H](CC(=O)O)C(=O)N[C@@H](CC(C)C)C(=O)N[C@@H](CC(C)C)C(=O)N[C@@H](CCC(=O)O)C(=O)N[C@H](C(=O)N[C@@H](CCCCN)C(=O)N[C@@H](CC(C)C)C(=O)N[C@@H](CCCNC(=N)N)C(=O)N[C@@H](CO)C(=O)N[C@@H](Cc1ccc(O)cc1)C(=O)N[C@@H](CCC(=O)O)C(=O)N[C@@H](CCCNC(=N)N)C(=O)O)[C@@H](C)O [E8R] (H-RQELESLMKRQDLLETKLRSYER-OH; N-terminus and C-terminus assumed) |  |
|  |  | CSCC[C@H](NC(=O)[C@H](CC(C)C)NC(=O)[C@H](CO)NC(=O)[C@H](CCC(=O)O)NC(=O)[C@H](CC(C)C)NC(=O)[C@@H](N)CCC(=O)O)C(=O)O [ELESLM] (H-ELESLM-OH) | Kd: > 30 µM |
| > 30 | almost complete loss | CSCC[C@H](NC(=O)[C@H](CCCNC(=N)N)NC(=O)[C@H](CO)NC(=O)[C@H](CCC(=O)O)NC(=O)[C@H](CC(C)C)NC(=O)[C@H](CCC(=O)O)NC(=O)[C@H](CCC(N)=O)NC(=O)[C@@H](N)CCCNC(=N)N)C(=O)N[C@@H](CCCCN)C(=O)N[C@@H](CCC(=O)O)C(=O)N[C@@H](CCC(N)=O)C(=O)N[C@@H](CC(=O)O)C(=O)N[C@@H](CC(C)C)C(=O)N[C@@H](CC(C)C)C(=O)N[C@@H](CCC(=O)O)C(=O)N[C@H](C(=O)N[C@@H](CCCCN)C(=O)N[C@@H](CC(C)C)C(=O)N[C@@H](CCCNC(=N)N)C(=O)N[C@@H](CO)C(=O)N[C@@H](Cc1ccc(O)cc1)C(=O)N[C@@H](CCC(=O)O)C(=O)N[C@@H](CCCNC(=N)N)C(=O)O)[C@@H](C)O [L5R] (H-RQELESRMKEQDLLETKLRSYER-OH; N-terminus and C-terminus assumed) |  |
| > 30 | almost complete loss | CSCC[C@H](NC(=O)[C@H](CC(C)C)NC(=O)[C@H](CO)NC(=O)[C@H](CCC(=O)O)NC(=O)[C@H](CC(C)C)NC(=O)[C@H](CCC(=O)O)NC(=O)[C@H](CCC(N)=O)NC(=O)[C@@H](N)CCCNC(=N)N)C(=O)N[C@@H](CCCCN)C(=O)N[C@@H](CCC(=O)O)C(=O)N[C@@H](CCC(N)=O)C(=O)N[C@@H](CC(=O)O)C(=O)N[C@@H](CC(C)C)C(=O)N[C@@H](CCCNC(=N)N)C(=O)N[C@@H](CCC(=O)O)C(=O)N[C@H](C(=O)N[C@@H](CCCCN)C(=O)N[C@@H](CC(C)C)C(=O)N[C@@H](CCCNC(=N)N)C(=O)N[C@@H](CO)C(=O)N[C@@H](Cc1ccc(O)cc1)C(=O)N[C@@H](CCC(=O)O)C(=O)N[C@@H](CCCNC(=N)N)C(=O)O)[C@@H](C)O [L12R] (H-RQELESLMKEQDLRETKLRSYER-OH; N-terminus and C-terminus assumed) |  |
| > 30 | almost complete loss | CSCC[C@H](NC(=O)[C@H](CC(C)C)NC(=O)[C@H](CO)NC(=O)[C@H](CCC(=O)O)NC(=O)[C@H](CC(C)C)NC(=O)[C@H](CCC(=O)O)NC(=O)[C@H](CCC(N)=O)NC(=O)[C@@H](N)CCCNC(=N)N)C(=O)N[C@@H](CCCCN)C(=O)N[C@@H](CCC(=O)O)C(=O)N[C@@H](CCC(N)=O)C(=O)N[C@@H](CC(=O)O)C(=O)N[C@@H](CC(C)C)C(=O)N[C@@H](CC(C)C)C(=O)N[C@@H](CCC(=O)O)C(=O)N[C@H](C(=O)N[C@@H](CCCCN)C(=O)N[C@@H](CCCNC(=N)N)C(=O)N[C@@H](CCCNC(=N)N)C(=O)N[C@@H](CO)C(=O)N[C@@H](Cc1ccc(O)cc1)C(=O)N[C@@H](CCC(=O)O)C(=O)N[C@@H](CCCNC(=N)N)C(=O)O)[C@@H](C)O [L16R] (H-RQELESLMKEQDLLETKRRSYER-OH; N-terminus and C-terminus assumed) |  |
| 0.7 ± 0.05 |  | CSCC[C@H](NC(=O)[C@H](CC(C)C)NC(=O)[C@H](CO)NC(=O)[C@H](CCC(=O)O)NC(=O)[C@H](CC(C)C)NC(=O)[C@H](CCC(=O)O)NC(=O)[C@H](CCC(N)=O)NC(=O)[C@@H](N)CCCNC(=N)N)C(=O)N[C@@H](CCCCN)C(=O)N[C@@H](CCC(=O)O)C(=O)N[C@@H](CCC(N)=O)C(=O)N[C@@H](CC(=O)O)C(=O)N[C@@H](CC(C)C)C(=O)N[C@@H](CC(C)C)C(=O)N[C@@H](CCC(=O)O)C(=O)N[C@H](C(=O)N[C@@H](CCCCN)C(=O)N[C@@H](CC(C)C)C(=O)N[C@@H](CCCNC(=N)N)C(=O)N[C@@H](CO)C(=O)N[C@@H](CCCNC(=N)N)C(=O)N[C@@H](CCC(=O)O)C(=O)N[C@@H](CCCNC(=N)N)C(=O)O)[C@@H](C)O [Y19R] (H-RQELESLMKEQDLLETKLRSRER-OH) |  |
|  |  | EIGELKAVMEGIKMEHQLELGN [CLIP2-degron, synthetic degron peptide derived from CLIP2] | -T∆S [2]: 2.57 kcal/mol; ∆G [2]: -8.23 kcal/mol; ∆H [2]: -10.8 ± 0.25 kcal/mol |
| 3.8 |  | ELEKAKQECQDLKGKLEKCCRH [CEP152-degron, synthetic degron peptide derived from CEP152] | -T∆S [2]: -4.79 kcal/mol; ∆G [2]: -6.59 kcal/mol; ∆H [2]: -1.8 ± 0.09 kcal/mol |
